Laboratory results as given in patent US9474277B2, “Pyrazole compound and pesticidal mixtures comprising a pyrazole compound” (BASF SE, priority 2012, dated 2016).
Read-outs that look alike come from different tables or passages of the source.

How the values were obtained:
[1] = system: Rice Plant Hopper (Nilaparvata lugens); assay: B.7 Rice plant hopper test on sprayed rice seedlings; assay type: in vivo; conditions: 500 ppm, after 72 hours
Description: B.7 Rice Plant Hopper (Nilaparvata lugens)
(§1) Rice seedlings were cleaned and washed 24 hours before spraying. The active compounds were formulated in 50:50 acetone: water and 0.1% vol/vol surfactant (EL 620) was added. Potted rice seedlings were sprayed with 5 ml test solution, air dried, placed in cages and inoculated with 10 adults. Treated rice plants were kept at 28-29° C. and relative humidity of 50-60%. Percent mortality was recorded after 72 hours.

[2] = system: Rice Green Leafhopper (Nephotettix virescens); assay: B.9 Rice green leafhopper test on sprayed rice seedlings; assay type: in vivo; conditions: 500 ppm, after 72 hours
Description: B.9 Rice Green Leafhopper (Nephotettix virescens)
as §1, with “water,” for “water”

[3] = system: Greenbug Aphid, Schizaphis graminum; assay: Test 13 - Activity against greenbug aphid, wheat seed treatment; assay type: in vivo; conditions: single active, aphids counted 4 DAI
Description: Test 13—Activity Against Greenbug Aphid, Schizaphis graminum: Wheat seed treatment
Technical material was dissolved in acetone at sub-lethal doses. 50 μL of solution was added to a 20-ml scintillation vial, 15 wheat seeds were added, and the seeds were coated by vortexing the vial for 1 minute. The seeds were allowed to dry and planted later the same day. Seeds were planted individually in a moistened, fertilized soil mixture of 1:1 North Carolina loamy sand (Sandhill soil):play sand in 40.32 cm^2 pots. Pots were arranged in a randomized complete block design in the greenhouse and top-watered daily. Plant emergence and shoot phytotoxicity were evaluated 4, 7, and 14 days after treatment (DAT). At 14 DAT (true leaf stage), each plant was infested with 10 greenbug aphids (Schizaphis graminum) of mixed stages. Plants were maintained on light carts in a randomized complete block design and bottom-watered as needed. Twelve replicates (pots) were prepared for plant emergence and five replicates were prepared for infestation. Live aphids were counted 4 DAI and the mean percent population reduction relative to the solvent blank control was calculated.

[4] = system: Blumeria graminis f. sp. tritici; assay: Test 12 - Control of powdery mildew on wheat, seed treatment; assay type: in vivo; conditions: single active, untreated 82% disease
Description: Test 12—Control of Powdery Mildew on Wheat Caused by Blumeria graminis f. sp. tritici
Seeds of wheat were treated in a treater as standard equipment. The products and concentrations are listed below. At the same day the plants were seeded in pots. 14 days later at 19° C. and 70% humidity the plants were inoculated with spores of Blumeria graminis f. sp. tritici (=syn. Erysiphe garminis f. sp. tritici) by shaking heavily infestated stock plants over the treated pots. After cultivation in the greenhouse for 7 days at 22-26° C. and a relative humidity between 60 to 90% the extent of fungal attack on the leaves was visually assessed as % diseased leaf area.

Puccinia recondita = assay: Test 11 - Control of brown rust on wheat, seed treatment; assay type: in vivo; conditions: single active, untreated 90% disease
Description: Test 11—Control of Brown Rust on Wheat Caused by Puadnia recondita
Seeds of wheat were treated in a treater as standard equipment. The products and concentrations are listed below. At the same day the plants were seeded in pots. 14 days later at 19° C. and 70% humidity the plants were inoculated with spores of Puccinia recondita. To ensure the success the artificial inoculation, the plants were transferred to a humid chamber without light and a relative humidity of 95 to 99% and 20 to 24° C. for 24 h. Then the trial plants were cultivated for 6 days in a greenhouse chamber at 20-24° C. and a relative humidity between 65 and 70%. The extent of fungal attack on the leaves was visually assessed as % diseased leaf area.

Rhizoctonia solani = assay: Test 10 - Control of Rhizoctonia solani, corn seed treatment, plant height; assay type: in vivo; conditions: single active compound, 14 days
Description: Test 10—Control of Rhizoctonia solani
The compounds were dissolved in Acetone. Seeds of com were treated in a treater as standard equipment. The products and concentrations are listed below. After the treatment the seeds were sown in pots, and rye seeds (infected with Rhizoctonia solani) were placed next to the seeds (1 seed per corn seed).
After cultivation in the greenhouse for 14 days at 20° C. and a relative humidity of 70% the plant height of the plants were measured.

Altemaria solani = conditions: single active compound, 7 days after inoculation

CCN(C(=O)c1cnn(C2CC3(C2)OCCO3)c1C)c1ccnnc1 [Compound C-15]
mortality in comparison with untreated controls [1]: 75%

CCN(C(=O)c1cnn(C(C)C2CC23CC3)c1C)c1ccnnc1 (stereo not shown) [Compound C-26]
mortality in comparison with untreated controls [2]: at least 75%

CCN(C(=O)c1cnn(C(C)C(C)C)c1C)c1ccnnc1 (stereo not shown) [Compound I-674]
Observed efficacy (%) ([3]; table with fungicides F.1 to F.11, 33.7 g a.i./100 kg seeds): 21% | Observed efficacy (%) ([3]; table with insecticides A.1 to A.17, 33.7 g a.i./100 kg seeds): 28% | Observed efficacy (%) ([4]; 4 g a.i./100 kg seeds): 9% | Observed efficacy (%) ([4]; 250 g a.i./100 kg seeds): 21% | Observed efficacy (%) (Puccinia recondita; 250 g a.i./100 kg seeds): 0% | Observed efficacy (%) (Rhizoctonia solani; 63 g a.i./100 kg seeds): 5% | Observed efficacy (Altemaria solani; 63 ppm): 1%

CCN(C(=O)c1cnn(C(C)C(F)F)c1C)c1ccnnc1 (stereo not shown) [Compound I-680]
Observed efficacy (%) ([3]; table with fungicides F.1 to F.11, 2.9 g a.i./100 kg seeds): 7% | Observed efficacy (%) ([3]; table with insecticides A.1 to A.17, 2.9 g a.i./100 kg seeds): 23% | Observed efficacy (%) ([4]; 250 g a.i./100 kg seeds): 15% | Observed efficacy (%) (Puccinia recondita; 250 g a.i./100 kg seeds): 0% | Observed efficacy (%) (Rhizoctonia solani; 63 g a.i./100 kg seeds): 0% | Observed efficacy (Altemaria solani; 63 ppm): 3%

CCN(C(=O)c1cnn(C(C)C2(C#N)CC2)c1C)c1ccnnc1 (stereo not shown) [Compound I-698]
Observed efficacy (%) ([3]; table with fungicides F.1 to F.11, 150 g a.i./100 kg seeds): 51% | Observed efficacy (%) ([3]; table with insecticides A.1 to A.17, 150 g a.i./100 kg seeds): 74% | Observed efficacy (%) ([4]; 250 g a.i./100 kg seeds): 15% | Observed efficacy (%) (Puccinia recondita; 63 g a.i./100 kg seeds): 4% | Observed efficacy (%) (Rhizoctonia solani; 250 g a.i./100 kg seeds): 3% | Observed efficacy (Altemaria solani; 1 ppm): 7% | Observed efficacy (Altemaria solani; 63 ppm): 3%

N#Cc1c[nH]cc1-c1cccc2c1OC(F)(F)O2 [Fludioxonil, 4-(2,2-difluorobenzo[1,3]dioxol-4-yl)-1H-pyrrole-3-carbonitrile, reference compound]
Observed efficacy (Altemaria solani; 0.063 ppm): 26%

Cn1cc(C(=O)Nc2ccccc2-c2cc(F)c(F)c(F)c2)c(C(F)F)n1 [Fluxapyroxad, reference compound]
Observed efficacy (%) ([3]; table with fungicides F.1 to F.11, 20 g a.i./100 kg seeds): 0% | Observed efficacy (%) (Puccinia recondita; 1 g a.i./100 kg seeds): 16% | Observed efficacy (%) (Rhizoctonia solani; 4 g a.i./100 kg seeds): 74%

COCC(=O)N(c1c(C)cccc1C)[C@H](C)C(=O)OC [Mefenoxam, reference compound]
Observed efficacy (%) ([3]; table with fungicides F.1 to F.11, 15 g a.i./100 kg seeds): 6% | Observed efficacy (%) ([4]; 4 g a.i./100 kg seeds): 0% | Observed efficacy (%) (Rhizoctonia solani; 63 g a.i./100 kg seeds): 0%

COC(=O)N(OC)c1ccccc1COc1ccn(-c2ccc(Cl)cc2)n1 [Pyraclostrobin, methyl N-{2-[1-(4-chlorophenyl)-1H-pyrazol-3-yloxymethyl]phenyl}(N-methoxy)carbamate, reference compound]
Observed efficacy (%) (Rhizoctonia solani; 63 g a.i./100 kg seeds): 49% | Observed efficacy (Altemaria solani; 0.016 ppm): 16%

c1ccc2[nH]c(-c3cscn3)nc2c1 [Thiabendazol]
Observed efficacy (%) ([4]; 250 g a.i./100 kg seeds): 2%

CC1(C)CC/C(=C\c2ccc(Cl)cc2)C1(O)Cn1cncn1 (stereo not shown) [Triticonazol, (5E)-5-[(4-chlorophenyl)methylene]-2,2-dimethyl-1-(1H-1,2,4-triazol-1-ylmethyl)cyclopentanol, reference compound]
Observed efficacy (%) ([4]; 16 g a.i./100 kg seeds): 60% | Observed efficacy (%) (Puccinia recondita; 16 g a.i./100 kg seeds): 49% | Observed efficacy (%) (Rhizoctonia solani; 16 g a.i./100 kg seeds): 20% | Observed efficacy (Altemaria solani; 0.063 ppm): 27%

CNC(=O)c1cc(Cl)cc(C)c1NC(=O)c1cc(Br)nn1-c1ncccc1Cl [chloranthraniliprole]
Observed efficacy (%) ([3]; table with insecticides A.1 to A.17, 75 g a.i./100 kg seeds): 30%
